As usually defined, the IC50 is the concentration needed to halve the response being measured.

Structures are written as SMILES. Where two headings read alike, the source gives them in different places.

Details of data set [1]: method as in doi:10.1002/ejic.200901174. The conditions noted are these: copper(II) complex of the named ligand; cited from earlier work.
The test system of data set [2] is MDA-MB-231 cells. Also noted: method as in PMID 30384010. The note with it: cited from earlier work.
The target of a further data set is T1, mouse R2 RNR protein (Mus musculus, UniProt P11157).
T1 construct: mR2 protein was expressed, purified, and iron-reconstituted as described previously; made in house
T1 sequence (P11157 1-390): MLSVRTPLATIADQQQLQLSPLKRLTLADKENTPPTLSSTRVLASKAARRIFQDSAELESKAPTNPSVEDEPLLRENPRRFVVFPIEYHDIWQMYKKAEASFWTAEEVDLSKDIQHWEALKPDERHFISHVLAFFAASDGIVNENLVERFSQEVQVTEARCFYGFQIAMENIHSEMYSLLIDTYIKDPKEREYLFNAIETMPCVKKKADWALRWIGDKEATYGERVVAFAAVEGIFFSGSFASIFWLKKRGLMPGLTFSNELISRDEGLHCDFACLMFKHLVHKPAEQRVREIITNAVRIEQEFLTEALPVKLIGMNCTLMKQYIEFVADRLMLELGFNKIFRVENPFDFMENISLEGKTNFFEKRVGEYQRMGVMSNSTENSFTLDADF
Also noted: method as in PMID 32961653. The conditions noted are these: in 3 min; cited from earlier work.

Another data set deals with MRC-5 cells. The experiment in a line: Inhibition of cell viability, colorimetric MTT assay. It is filed as cell-based. The note with it: Homo sapiens, MRC5, healthy lung fibroblasts, 72 h exposure, mean ± SD. Here is the method:
(§1) Human breast adenocarcinoma cells MDA-MB-231, sensitive COLO-205 and multidrug resistant COLO-320 colorectal adenocarcinoma cells and normal human lung fibroblasts MRC-5 were obtained from ATCC. COLO-205 and COLO-320 cells were cultured in RPMI-1640 medium containing 10% foetal bovine serum, MRC-5 cells were cultured in EMEM medium containing 10% foetal bovine serum. MDA-MB-231 cells were cultured in DMEM/high glucose medium containing 10% FBS. Adherent MDA-MB-231 cells were grown in Falcon tissue culture 75 cm^2 flasks and all other cells were grown in tissue culture 25 cm^2 flasks (BD Biosciences, Singapore). All cell lines were grown at 37 °C in a humidified atmosphere of 95% air and 5% CO2. The stock solutions of copper(II) complexes were prepared in DMSO.
(§2) The cytotoxicity of the compounds was determined by colorimetric MTT assay. The cells were harvested from culture flasks by trypsinisation and seeded into Cellstar 96-well microculture plates at the seeding density of 6000 cells per well (6 × 10^4 cells/mL, MDA-MB-231) or 10,000 cells per well (1× 10^5 cells/mL cells/mL, COLO-205, COLO-320 and MRC-5). The cells were allowed to resume exponential growth for 24 h, and subsequently were exposed to drugs at different concentrations in media for 72 h. The drugs were diluted in complete medium at the desired concentration and added to each well (100 µL) and serially diluted to other wells. After exposure for 72 h, the media were replaced with MTT in media (5 mg/mL, 100 µL) and incubated for additional 50 min. Subsequently, the media were aspirated and the purple formazan crystals formed in viable cells were dissolved in DMSO (100 µL). Optical densities were measured at 570 nm using the BioTek H1 Synergy (BioTek, Singapore) microplate reader. The quantity of viable cells was expressed in terms of treated/control (T/C) values in comparison to untreated control cells, and 50% inhibitory concentrations (IC50) were calculated from concentration-effect curves by interpolation. Evaluation was based on at least three independent experiments, each comprising six replicates per concentration level.
For orientation: Tetrazolium assays rely on reduction of a dye to a coloured formazan, in cell work by metabolically active cells.

For data set [3], the system named is MDA-MB-231 cells. The description is as above. The data set is classed as cell-based. The conditions noted are these: Homo sapiens, 72 h exposure, mean ± SD. As to the method:
as §1, §2

Another data set has as its system COLO-205 cells. The data set is described as above. The note with it: Homo sapiens, 72 h exposure, mean ± SD. It is filed as cell-based. Here is the method: as §1, §2
In a further data set the test system is COLO-320 cells. The data set is described as above. The data set is classed as cell-based, human. The conditions noted are these: for IC50: Homo sapiens, COLO 320, MTT assay, 72 h exposure, mean ± SD. Here is the method:
as §1, §2

Turning to `NC(=S)NN=Cc1ncccc1N` [Triapine, 3-aminopyridine-2-carboxaldehyde thiosemicarbazone], in data set [1], the “logβ[CuL]+” value is 13.89(3). For the same molecule, in the data set with MDA-MB-231 cells [2], the IC50 was 1.5 ± 1.1 µM. Also, on mouse R2 RNR protein, the tyrosyl radical reduction was 100%.

`CN(C)C(=S)NN=Cc1cc(COc2ccc3cc(C(=O)N4CCN(Cc5ccnc(C=NNC(=S)N(C)C)c5)CC4)c(=O)oc3c2)ccn1` [H2L^4, 2-((4-((4-(7-((2-((2-(dimethylcarbamothioyl)hydrazineylidene)methyl)pyridin-4-yl)methoxy)-2-oxo-2H-chromene-3-carbonyl)piperazin-1-yl)methyl)pyridin-2-yl)methylene)-N,N-dimethylhydrazine-1-carbothioamide]: the IC50 with MRC-5 cells worked out at 4 ± 0.3 µM; in the data set with MDA-MB-231 cells [3], 3 ± 0.3 µM; with COLO-205 cells it was 4.4 ± 0.7 µM; in the data set on COLO-320 cells, 4.6 ± 0.3 µM. In addition, in the data set with COLO-320 cells (IC50(MRC-5)/IC50(COLO-320)), the SF is recorded as 0.9.

Consider `O=C(c1cc2ccc(O)cc2oc1=O)N1CCN(Cc2ccnc(C=NNC(=S)Nc3ccccc3)c2)CC1` [HL^2, 2-((4-((4-(7-Hydroxy-2-oxo-2H-chromene-3-carbonyl)piperazin-1-yl)methyl)pyridin-2-yl)methylene)-N-phenylhydrazine-1-carbothioamide], for which the 50% inhibitory concentration (IC50) in the data set with MRC-5 cells was found to be 54 ± 5 µM; in the data set with MDA-MB-231 cells [3], 18 ± 4 µM; with COLO-205 cells, 89 ± 6 µM; with COLO-320 cells, 83 ± 7 µM.

As to `Cc1cc(NCNN=Cc2cc(CN3CCN(C(=O)c4cc5ccc(O)cc5oc4=O)CC3)ccn2)cc(C)c1O` [HL^3, 7-Hydroxy-3-(4-((2-((2-(((4-hydroxy-3,5-dimethylphenyl)amino)methyl)hydrazineylidene)-methyl)pyridin-4-yl)methyl)piperazine-1-carbonyl)-2H-chromen-2-one], the IC50 in the data set on MRC-5 cells was more than 100 µM; in the data set on MDA-MB-231 cells [3], 11 ± 1 µM; in the data set with COLO-205 cells, 76 ± 8 µM; in the data set on COLO-320 cells, 90 ± 10 µM.

In the case of `CN(C)C(=S)NN=Cc1ccccn1` [PTSC, pyridine-2-carboxaldehyde 4N-dimethylthiosemicarbazone], the “logβ[CuL]+” value in data set [1] was 13.57(2).

`COc1cccc2c1C(=O)c1c(O)c3c(c(O)c1C2=O)C[C@@](O)(C(=O)CO)C[C@@H]3O[C@H]1C[C@H](N)[C@H](O)[C@H](C)O1` [Doxorubicin, reference compound]: the IC50 in the data set on MRC-5 cells is 5.2 µM; in the data set with COLO-205 cells it was 3.3 µM; with COLO-320 cells, 3.1 µM.

Consider `CN(C)C(=S)NN=Cc1cc(CN2CCN(C(=O)c3cc4ccc(O)cc4oc3=O)CC2)ccn1` [HL^1, 2-((4-((4-(7-Hydroxy-2-oxo-2H-chromene-3-carbonyl)piperazin-1-yl)methyl)pyridin-2-yl)methylene)-N,N-dimethylhydrazine-1-carbothioamide], for which the concentration for half-maximal inhibition (IC50) came to 41 ± 1 µM in the data set with MRC-5 cells, 4.8 ± 1.3 µM with MDA-MB-231 cells [3], 9.2 ± 0.1 µM with COLO-205 cells and 6.7 ± 0.9 µM with COLO-320 cells.

Regarding `CN(C)C(=S)NN=Cc1ncccc1N` [APTSC, 3-aminopyridine-2-carboxaldehyde 4N-dimethylthiosemicarbazone], in data set [1], the “logβ[CuL]+” value was 13.95(2).
